Test results taken from patent publication US20090170899A1, “Stimulators of 5-HT4 receptors and uses thereof” (priority 2004, published 2009).

Legend:
[1] = tested on: BrdU-positive cells in the sub-granular zone (SGZ) of the hippocampus; experiment: Hippocampal neurogenesis (BrdU-positive cells) after 3-day treatment; format: in vivo, rat; details: RS 67333 1.5 mg/kg/day, 3 days
Description: A and B: Photomicrographs (magnification: 10× and 100× for the small rectangles) representative of the control and RS 67333 group, respectively. Clusters of positive cells were found in the presence of RS 67333 (small rectangles). RS 67333 was administered through the use of osmotic minipumps, inserted subcutaneously in the region of the back. Rats received intraperitoneal injections of BrdU at the dose of 50 mg/kg twice daily (8 h interval), starting from the day of minipump insertion until day 2 post-surgery.
Drugs and Chemicals. The following compounds were used: GR 125487 sulphamate, prucalopride monohydrochloride, citalopram hydrobromide (gifts from Glaxo, Janssen and Lundbeck laboratories, respectively), RS 67333 hydrochloride (Tocris Cookson Inc., Ellisville, Mo., USA), WAY 100635 hydrochloride (Research Biochemicals, Natick, Mass., USA), pCPA methyl ester hydrochloride, BrdU (Sigma-Aldrich Canada, Oakville, Ontario, Canada). All compounds were diluted in distilled water. All drug dosages refer to the free base. For chronic treatments, prucalopride (2.5 mg/kg/day), RS 67333 (1.5 mg/kg/day) or the vehicle were delivered through osmotic minipumps (Alza, Palo Alto, Calif., USA), inserted subcutaneously in the region of the back under short-duration (≦5 min) halothane anesthesia. […]

DRN 5-HT neurons = experiment: Reversal by acute prucalopride of the inhibition of DRN 5-HT neuron firing rate induced by i.v. SSRIs; format: in vivo, rat
Text: FIGS. 6A and 6B illustrate the effect of prucalopride on the inhibition of 5-HT neuronal firing rate induced by SSRIs fluxoamine and citalopram.
In FIGS. 6A and 6B, the firing activity of the 5-HT neuron is suppressed following the acute intravenous administration of the antidepressant SSRIs fluvoxamine and citalopram. This suppression of the firing activity is due to the activation of the 5-HT1A autoreceptors, subsequent to the increase of the concentration of endogenous 5-HT, following the blockade of the 5-HT reuptake sites.

Row | Structure (SMILES) | size of clusters of BrdU-positive cells [1] [clones] | density of BrdU-positive cells in the SGZ ([1]; control 44.9±17.2) [per mm^2] | share of 5-HT neurons in which the suppression is reversed (DRN 5-HT neurons; acute prucalopride) | effect of prucalopride on SSRI-induced suppression of 5-HT neuron firing (DRN 5-HT neurons; acute prucalopride after fluvoxamine or citalopram i.v.)
1 | CCCCN1CCC(CCC(=O)c2cc(Cl)c(N)cc2OC)CC1 [RS 67333, 1-(4-amino-5-chloro-2-methoxyphenyl)-3-(1-n-burtl-4-piperidinyl)-1-propanone] | 6 to 10 | 200.2±44.9 | – | –
2 | COCCCN1CCC(NC(=O)c2cc(Cl)c(N)c3c2OCC3)CC1 [prucalopride] | – | – | about one-half | partially reverse
